Measured values from ChEMBL document CHEMBL5620344, “Discovery of novel 5-(2-hydroxyphenyl)-2-phthalide-3(3H)-pyrazolones as balanced multifunctional agents against Alzheimer's disease” (Eur J Med Chem, 2023).

What was measured:
[1] = Antioxidant activity assessed as trolox equivalent of ORAC radical scavenging activity by ORAC-FL assay relative to trolox; assay type: functional
[2] = biological target: Amyloid-beta precursor protein (Homo sapiens) (UniProt P05067); assay: Inhibition of self-induced amyloid beta (1 to 42) (unknown origin) aggregation at 25 uM by ThT fluorescence assay
[3] = biological target: Amyloid-beta precursor protein (Homo sapiens) (UniProt P05067); assay: Disaggregation of Cu2+-induced amyloid beta (1 to 42) (unknown origin) preformed fibrils at 25 uM by ThT fluorescence assay
[4] = biological target: Amyloid-beta precursor protein (Homo sapiens) (UniProt P05067); assay: Disaggregation of self-induced amyloid beta (1 to 42) (unknown origin) preformed fibrils at 25 uM by ThT fluorescence assay
[5] = biological target: T1, Amine oxidase [flavin-containing] A (Homo sapiens, UniProt P21397); assay: Inhibition of human recombinant MAO-A
T1 sequence (P21397 whole entry): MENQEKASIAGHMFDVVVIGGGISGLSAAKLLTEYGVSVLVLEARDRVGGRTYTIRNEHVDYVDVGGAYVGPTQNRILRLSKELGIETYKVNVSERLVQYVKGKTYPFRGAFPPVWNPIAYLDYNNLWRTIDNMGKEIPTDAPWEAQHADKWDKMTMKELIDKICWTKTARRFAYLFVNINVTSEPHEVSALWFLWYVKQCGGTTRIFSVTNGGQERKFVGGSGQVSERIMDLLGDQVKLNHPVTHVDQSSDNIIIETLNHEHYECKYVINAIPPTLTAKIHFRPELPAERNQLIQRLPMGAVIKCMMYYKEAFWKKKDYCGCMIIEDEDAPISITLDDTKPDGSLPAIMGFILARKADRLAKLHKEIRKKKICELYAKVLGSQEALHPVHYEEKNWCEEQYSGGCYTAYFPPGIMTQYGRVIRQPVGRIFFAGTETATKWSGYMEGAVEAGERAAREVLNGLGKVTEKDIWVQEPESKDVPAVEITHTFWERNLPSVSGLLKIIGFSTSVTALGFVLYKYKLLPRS

[6] = biological target: Amyloid-beta precursor protein (Homo sapiens) (UniProt P05067); assay: Inhibition of Cu2+-induced amyloid beta (1 to 42) (unknown origin) aggregation at 25 uM by ThT fluorescence assay
[7] = biological target: T2, Amine oxidase [flavin-containing] B (Homo sapiens, UniProt P27338); assay: Inhibition of human recombinant MAO-B
T2 sequence (P27338 whole entry): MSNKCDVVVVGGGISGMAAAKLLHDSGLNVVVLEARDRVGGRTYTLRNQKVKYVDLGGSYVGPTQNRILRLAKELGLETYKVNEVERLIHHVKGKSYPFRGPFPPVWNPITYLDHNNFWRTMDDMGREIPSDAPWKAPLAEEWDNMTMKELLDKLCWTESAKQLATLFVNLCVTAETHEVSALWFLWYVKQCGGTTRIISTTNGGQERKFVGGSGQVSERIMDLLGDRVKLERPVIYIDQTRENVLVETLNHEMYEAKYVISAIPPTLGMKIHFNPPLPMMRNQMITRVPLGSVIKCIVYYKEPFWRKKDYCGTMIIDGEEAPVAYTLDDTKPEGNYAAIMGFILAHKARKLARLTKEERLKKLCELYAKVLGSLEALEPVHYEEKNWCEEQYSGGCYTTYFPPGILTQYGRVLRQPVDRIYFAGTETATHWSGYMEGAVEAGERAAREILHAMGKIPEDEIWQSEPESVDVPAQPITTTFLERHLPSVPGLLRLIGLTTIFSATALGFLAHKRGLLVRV

MAO-A = biological target: T3, MAO-A (Homo sapiens, UniProt P21397); assay: Inhibition of human recombinant MAO-A at 10 uM
T3 sequence (P21397 whole entry): T1 sequence (P21397 whole entry)

[8] = Selectivity index, ratio of IC50 for human recombinant MAO-A to IC50 for human recombinant MAO-B

Amyloid-beta precursor protein (Homo sapiens), sequence (P05067 whole entry): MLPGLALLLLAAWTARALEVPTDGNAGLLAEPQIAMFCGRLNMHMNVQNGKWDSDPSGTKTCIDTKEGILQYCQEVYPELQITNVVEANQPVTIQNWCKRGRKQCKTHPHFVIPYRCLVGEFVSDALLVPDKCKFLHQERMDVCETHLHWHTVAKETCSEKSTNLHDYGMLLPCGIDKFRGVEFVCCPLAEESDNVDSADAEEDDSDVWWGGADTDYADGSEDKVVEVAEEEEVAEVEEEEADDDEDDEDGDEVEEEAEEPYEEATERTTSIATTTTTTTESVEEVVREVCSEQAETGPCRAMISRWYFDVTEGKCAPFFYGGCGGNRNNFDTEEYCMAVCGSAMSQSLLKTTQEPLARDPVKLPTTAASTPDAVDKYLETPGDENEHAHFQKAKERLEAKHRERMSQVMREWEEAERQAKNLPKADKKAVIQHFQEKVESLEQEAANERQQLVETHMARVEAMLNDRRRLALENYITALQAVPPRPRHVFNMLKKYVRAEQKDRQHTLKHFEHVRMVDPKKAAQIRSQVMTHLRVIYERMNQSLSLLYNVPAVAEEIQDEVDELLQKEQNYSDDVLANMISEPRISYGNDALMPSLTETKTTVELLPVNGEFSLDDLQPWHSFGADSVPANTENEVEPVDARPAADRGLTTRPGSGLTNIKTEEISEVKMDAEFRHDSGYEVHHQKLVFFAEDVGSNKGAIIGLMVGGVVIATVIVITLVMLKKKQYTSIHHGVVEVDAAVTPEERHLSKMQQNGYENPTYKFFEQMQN

| inhibition [2] [%] | Activity [3] [%] | Activity [4] [%] | inhibition [6] [%] | IC50 [7] [µM] | Ratio IC50 [8] | inhibition ([2]; tested as the 2H-labelled form) [%] | Activity ([4]; tested as the 2H-labelled form) [%] | SMILES | Ratio [1] [equiv] | IC50 [5] [µM] | inhibition at 10 µM (MAO-A) [%] |
| --- | --- | --- | --- | --- | --- | --- | --- | --- | --- | --- | --- |
| 85.1 | 74.6 | 49.9 | 58.8 | 7.62 | > 1.3 |  |  | CCCCC1OC(=O)c2cc(N3N=C(c4cc(Cl)ccc4O)CC3=O)ccc21 (configuration not stated) | 1.32 | > 10 | 14.1 |
| 55.1 | 77.7 | 78.3 | 70.3 | 5.53 | > 1.8 |  |  | CCCCC1OC(=O)c2cc(N3N=C(c4cc(Cl)cc(Cl)c4O)CC3=O)ccc21 (configuration not stated) | 0.97 | > 10 | 1.11 |
| 68 | 65.6 | 56.5 | 66.2 | 8.05 | > 1.2 |  |  | CCCCC1OC(=O)c2cc(N3N=C(c4ccc(Cl)cc4O)CC3=O)ccc21 (configuration not stated) | 1.29 | > 10 | 5.51 |
| 65.2 | 86.8 | 87.1 | 85.1 | 6.5 | > 1.5 |  |  | CCCCC1OC(=O)c2cc(N3N=C(c4cc(Cl)cc(Br)c4O)CC3=O)ccc21 (configuration not stated) | 1.1 | > 10 | 8.09 |
| 65.6 | 66 | 54.1 | 69.4 | 12.3 | > 0.8 |  |  | CCCCC1OC(=O)c2cc(N3N=C(c4ccc(Br)cc4O)CC3=O)ccc21 (configuration not stated) | 1.22 | > 10 | 14.8 |
| 67 | 54.6 | 42.6 | 75.9 | > 10 |  |  |  | CCCCC1OC(=O)c2cc(N3N=C(c4cccc(F)c4O)CC3=O)ccc21 (configuration not stated) | 1.07 | > 10 | 7.96 |
| 69.3 | 55 | 44.8 | 64.1 | 9.25 | > 1.08 |  |  | CCCCC1OC(=O)c2cc(N3N=C(c4cc(Br)ccc4O)CC3=O)ccc21 (configuration not stated) | 1.38 | > 10 | 10.9 |
| 54.6 | 73.8 | 76.3 | 52.7 | 8.32 | > 1.2 |  |  | CCCCCCC1OC(=O)c2cc(N3N=C(c4cc(Cl)ccc4O)CC3=O)ccc21 (configuration not stated) | 1.18 | > 10 | 27.8 |
| 75.5 | 62.8 | 67.4 | 50.6 | 10.5 | > 1 |  |  | CCCCC1OC(=O)c2cc(N3N=C(c4cccc(Br)c4O)CC3=O)ccc21 (configuration not stated) | 1.15 | > 10 | 13 |

The next lines start with the molecule.

| SMILES | inhibition [2] [%] | Activity [3] [%] | Activity [4] [%] | inhibition [6] [%] | IC50 [7] [µM] | Ratio IC50 [8] | inhibition ([2]; tested as the 2H-labelled form) [%] | Activity ([4]; tested as the 2H-labelled form) [%] | Ratio [1] [equiv] | IC50 [5] [µM] | inhibition at 10 µM (MAO-A) [%] |
| --- | --- | --- | --- | --- | --- | --- | --- | --- | --- | --- | --- |
| CCCCCCCC1OC(=O)c2cc(N3N=C(c4cc(OC)ccc4O)CC3=O)ccc21 (configuration not stated) | 45.4 | 60.7 | 31.1 | 63.1 | 2.87 | > 3.5 |  |  | 1.82 | > 10 | 8.73 |
| CCCCC1OC(=O)c2cc(N3N=C(c4cc(F)ccc4O)CC3=O)ccc21 (configuration not stated) | 66.6 | 59.5 | 52.7 | 60.3 | 3.45 | > 2.9 |  |  | 1.21 | > 10 | 13.3 |
| CCCCCCCC1OC(=O)c2cc(N3N=C(c4ccccc4O)CC3=O)ccc21 (configuration not stated) | 57.8 | 71.7 | 68.6 | 44.1 | 11.4 | > 0.9 |  |  | 1.38 | > 10 | 14.5 |
| C[C@H](NCc1ccc(OCc2cccc(F)c2)cc1)C(N)=O [SAFINAMIDE] |  |  |  |  |  |  |  |  |  |  | 9.67 |
| CCCCC1OC(=O)c2cc(N3N=C(c4cc(C)ccc4O)CC3=O)ccc21 (configuration not stated) | 54.4 |  | 24.7 | 61.2 | 7.35 | > 1.4 |  |  | 1.6 | > 10 | 5.2 |
| CCCCC1OC(=O)c2cc(N3N=C(c4cc([N+](=O)[O-])ccc4O)CC3=O)ccc21 (configuration not stated) | 68.8 | 61.8 | 57.2 | 66.1 | 9.26 | > 1.1 |  |  | 0.73 | > 10 | 8.48 |
| CCCCC1OC(=O)c2cc(N3N=C(c4cc(OC)ccc4O)CC3=O)ccc21 (configuration not stated) | 78 | 69.1 | 59.9 | 71 | 3.88 | > 2.6 |  |  | 2.28 | > 10 | 2.97 |
| O=C1OCc2ccc(N3N=C(c4cccc(F)c4O)CC3=O)cc21 | 21.3 |  | 8.27 |  | 0.9 | > 11.1 |  |  | 1.1 | > 10 | 21 |
| CCCCC1OC(=O)c2cc(N3N=C(c4ccc(N(C)C)cc4O)CC3=O)ccc21 (configuration not stated) | 24.9 |  | 7.68 |  | 5.07 | > 2 |  |  | 1.84 | > 10 | 9.51 |
| CCCCC1OC(=O)c2cc(N3N=C(c4ccccc4O)CC3=O)ccc21 (configuration not stated) | 70.9 | 76.4 | 65 | 75.3 | > 10 |  |  |  | 1.55 | > 10 | 25.6 |
| [2H]C1OC(=O)c2cc(N3N=C(C)CC3=O)ccc21 (configuration not stated) |  |  |  |  | 4.36 |  |  |  |  | 6.78 |  |
| CCCCC1OC(=O)c2cc(N3N=C(c4cc(N(C)C)ccc4O)CC3=O)ccc21 (configuration not stated) | 60.6 | 55.7 | 51 | 63.8 | 6.2 | > 1.6 |  |  | 2.58 | > 10 | 1.6 |
| COc1cc(/C=C/C(=O)CC(=O)/C=C/c2ccc(O)c(OC)c2)ccc1O |  |  | 35.8 |  |  |  |  |  |  |  |  |
| CC1=NN(c2ccc3c(c2)C(=O)OC3)C(=O)C1 |  |  |  |  |  | 1.6 | 71.5 | 28.6 | 1.18 |  |  |
| CCCCCCC1OC(=O)c2cc(N3N=C(c4cc(F)ccc4O)CC3=O)ccc21 (configuration not stated) | 44.6 | 55 | 43.7 | 31.8 | 6.34 | > 1.6 |  |  | 1.1 | > 10 | 10.7 |
| O=C1OCc2ccc(N3N=C(c4ccccc4O)CC3=O)cc21 | 33.5 |  | 28.1 |  | 0.22 | > 45.5 |  |  | 1.38 | > 10 | 23.2 |
| O=C1OCc2ccc(N3N=C(c4cc(F)ccc4O)CC3=O)cc21 | 46.1 | 42.8 | 41.1 | 44.7 | 0.56 | > 17.9 |  |  | 1.25 | > 10 | 24.2 |
| CCCCC1OC(=O)c2cc(-n3nc(-c4ccccc4O)cc3C)ccc21 (configuration not stated) | 19.3 |  | 8.11 |  | > 10 |  |  |  | 1.38 | > 10 | 20.4 |
| CCCCCCC1OC(=O)c2cc(N3N=C(c4ccccc4O)CC3=O)ccc21 (configuration not stated) | 50.3 | 66.7 | 59.5 | 43.8 | 3.79 | > 2.6 |  |  | 1.33 | > 10 | 21.7 |
